Assay results from patent US20230322776A1, “NEW ARYL-PYRIDO-PYRIMIDIN-ONE DERIVATIVES” (Hoffmann-La Roche Inc., priority 2020, published 2023).

Key:
BRAF V660E = BRAF V660E (Homo sapiens, UniProt P15056, V600E); assay: KD BRAF V660E (Table 1; no method described); assay type: binding
BRAF = BRAF (Homo sapiens, UniProt P15056); assay: KD BRAF (Table 1; no method described); assay type: binding
[1] = test system: A375 cells (V600E mutated BRAF), ERK phospho-T202/Y204; assay: HTRF assay for P-ERK determination in A375 cells (BRAF inhibition); assay type: cell-based; settings: Homo sapiens, A-375, 1 hour drug incubation, DMSO = 100%, 10 μM Dabrafenib = 0%, top concentration 10 μM, read-out: P-ERK_A375: IC50
Excerpt: (§1) A375 is a cellular cancer model expressing V600E mutated BRAF and HCT116 a cellular cancer model expressing WT BRAF. First generation BRAF inhibitors such as e.g. dabrafenib induce a paradox effect on tumour cells in that they inhibit the growth of V600E mutated BRAF cells (such as e.g. A375), while they activate growth in WT BRAF cells (such as e.g. HCT 116). ERK 1,2 phosphorylation (terminal member of the phosphorylation cascade of the MAPK pathway) is hereafter reported as main readout for the activation status of the MAPK pathway. DMEM no-phenol red medium supplemented with L-glutamine was purchased from (Thermo Fisher Scientific). Fetal bovine serum (FBS) was purchased from VWR. Advanced ERK phospho-T202/Y204 kit—10,000 tests was purchased from Cisbio cat #64AERPEH. A375 (catalog #CRL-1619) and HCT116 (catalog #CCL-247) cells were originally obtained from American type Culture Collection (ATCC) and banked by the Roche repository. 384-Well microplates ultized were purchased from Greiner Bio-One, 384-well, (With Lid, HiBase, Low volume cat 784-080).
(§2) HTRF Assay for P-ERK Determination in A375 or HCT116 Cells
(§3) Prior to the assay, A375 and HCT116 cell lines are maintained in DMEM no-phenol red medium supplemented with 10% fetal bovine serum (FBS). Following compound treatment, P-ERK levels are determined by measuring FRET fluorescence signal induced by selective binding of two antibodies provided in the mentioned kit (Cisbio cat #64AERPEH) on ERK protein when phosphorylated at Thr202/Tyr204. Briefly, 8000 cells/well in 12 μl media/well are plated in the 384-well plate and left overnight in the incubator (at 37° C. with 5% CO2-humidified atmosphere), the following day the plate is treated in duplicate with test compounds, dabrafenib and PLX8394 (the latter two as controls) at the following final drug concentrations: 10 μM, 3 μM, 1 μM, 0.3 μM, 0.1 μM, 0.03 μM, 0.01 μM, 0.003 μM and 0.001 μM. All wells are subjected to DMSO normalization and drug incubation occurs for 1 hour. Then, 4 μl of a 4× lysis buffer supplied with the kit are added to the wells, the plate is then centrifuged for 30 second (3000 rpm) and incubated on a plate shaker for 1 h at rt.
(§4) At the end of the incubation 4 μl/well of advanced P-ERK antibody solution (prepared according to manufacturer's instruction) followed by 4 μl/well of criptate P-ERK antibody solution (prepared according to manufacturer's instruction) (Cisbio cat #64AERPEH) are added to test wells.
(§5) In order to allow proper data normalization, control wells non drug treated reported in the following table are always included in each plate (according to manufacturer's instruction):
(§6) The plate is then centrifuged at 3000 rpm for 30 seconds, sealed to prevent evaporation and incubated overnight in the dark at room temperature. The plate is then analyzed and fluorescence emission value collected through a Pherastast FSX (BMG Labtech) apparatus at […]. The obtained fluorescence values are processed according to the formula Ratio=[…]*10000 then the average of the ratio on the blank is subtracted to all values.
Data are normalized in the case of A375 cells (BRAF inhibition) considering the average of the ratio (blank subtracted) derived by DMSO only treated cells as 100% and by considering the average of the ratio (blank subtracted) derived by 10 μM Dabrafenib treated cells as 0%. Mean of the normalized points are fitted with sigmoidal curve and IC50 values are determined.

[2] = test system: HCT116 cells (WT BRAF), ERK phospho-T202/Y204; assay: HTRF assay for P-ERK determination in HCT116 cells (BRAF activation, paradox); assay type: cell-based; settings: for EC50: Homo sapiens, HCT-116, HCT116 cells, 1 hour drug incubation, activation relative to maximum Dabrafenib-mediated activation (100%), top concentration 10 μM, read-out: P-ERK_HCT-116: EC50—50PCT; for Fold Selectivity HCT-116 EC50-50/ A375: ratio of P-ERK HCT-116 EC50-50PCT to P-ERK A375 IC50
Excerpt: as §1, §2, §3, §4, §5, §6
Data are normalized in the case of HCT116 cells (BRAF activation) considering the average of the ratio (blank subtracted) derived by DMSO only treated cells as 0% and by considering the average of the ratio (blank subtracted) derived by Dabrafenib treated cells at the concentration which provides the highest signal as 100%. Individual points are fitted with either sigmoidal or bell shape curves, the percentage of activation compared to maximum Dabrafenib-mediated activation is determined.

Chain of BRAF (P15056 whole entry): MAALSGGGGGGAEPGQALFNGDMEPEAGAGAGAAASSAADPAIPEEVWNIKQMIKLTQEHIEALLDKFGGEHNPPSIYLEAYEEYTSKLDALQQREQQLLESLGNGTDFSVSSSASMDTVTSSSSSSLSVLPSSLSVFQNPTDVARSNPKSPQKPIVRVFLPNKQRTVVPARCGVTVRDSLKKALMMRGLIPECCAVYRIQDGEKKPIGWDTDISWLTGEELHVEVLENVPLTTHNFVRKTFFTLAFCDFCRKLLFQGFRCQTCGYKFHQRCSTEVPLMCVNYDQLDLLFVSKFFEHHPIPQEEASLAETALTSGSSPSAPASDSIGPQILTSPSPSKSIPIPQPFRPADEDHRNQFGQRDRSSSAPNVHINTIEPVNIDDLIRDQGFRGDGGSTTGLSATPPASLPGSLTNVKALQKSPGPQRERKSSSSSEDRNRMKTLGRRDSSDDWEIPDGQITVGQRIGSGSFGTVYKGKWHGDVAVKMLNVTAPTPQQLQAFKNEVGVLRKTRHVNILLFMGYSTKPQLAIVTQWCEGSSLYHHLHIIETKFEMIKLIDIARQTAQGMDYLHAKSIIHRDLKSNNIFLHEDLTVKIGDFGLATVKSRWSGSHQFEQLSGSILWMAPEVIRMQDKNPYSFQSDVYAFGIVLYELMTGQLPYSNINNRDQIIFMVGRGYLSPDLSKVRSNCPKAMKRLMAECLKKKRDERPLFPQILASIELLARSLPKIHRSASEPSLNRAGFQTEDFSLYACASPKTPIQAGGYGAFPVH
Chain of BRAF V660E (P15056 2-766 V600E): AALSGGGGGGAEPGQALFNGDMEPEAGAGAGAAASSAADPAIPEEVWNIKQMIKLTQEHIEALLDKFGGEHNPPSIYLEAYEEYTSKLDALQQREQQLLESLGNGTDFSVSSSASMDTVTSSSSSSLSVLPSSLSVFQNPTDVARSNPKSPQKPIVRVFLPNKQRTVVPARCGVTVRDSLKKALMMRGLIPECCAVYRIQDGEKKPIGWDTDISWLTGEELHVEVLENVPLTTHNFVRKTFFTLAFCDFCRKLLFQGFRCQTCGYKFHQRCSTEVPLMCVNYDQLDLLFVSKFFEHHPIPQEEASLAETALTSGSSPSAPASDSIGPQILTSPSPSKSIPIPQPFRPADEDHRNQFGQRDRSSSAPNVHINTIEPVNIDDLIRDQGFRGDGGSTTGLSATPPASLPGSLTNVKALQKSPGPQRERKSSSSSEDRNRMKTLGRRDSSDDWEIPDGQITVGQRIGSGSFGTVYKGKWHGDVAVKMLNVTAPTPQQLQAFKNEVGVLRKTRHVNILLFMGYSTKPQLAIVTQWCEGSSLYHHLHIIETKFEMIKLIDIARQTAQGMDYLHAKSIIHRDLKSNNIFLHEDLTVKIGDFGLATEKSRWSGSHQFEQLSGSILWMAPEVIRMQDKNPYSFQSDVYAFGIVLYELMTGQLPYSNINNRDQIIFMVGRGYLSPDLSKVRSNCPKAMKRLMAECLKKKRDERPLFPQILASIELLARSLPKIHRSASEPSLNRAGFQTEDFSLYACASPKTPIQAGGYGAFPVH

Row | Structure (SMILES) | Kd (BRAF V660E) [nM] | Kd (BRAF) [nM] | IC50 [1] [nM] | EC50 [2] [µM] | Fold Selectivity HCT-116 EC50-50/ A375 [2]
1 | CCN(C)S(=O)(=O)Nc1ccc(F)c(-c2cc3cnc(NCCCN(C)C(C)=O)nc3n(C)c2=O)c1F [Example 30, N-[3-[[6-[3-[[ethyl(methyl)sulfamoyl]amino]-2,6-difluorophenyl]-8-methyl-7-oxopyrido[2,3-d]pyrimidin-2-yl]amino]propyl]-N-methylacetamide] | 159 | 72.3 | 287 | 5.7 | 19.8
2 | CC(=O)N1CCc2ccc(CCNc3ncc4cc(-c5c(F)ccc(NS(=O)(=O)N6CC[C@@H](F)C6)c5F)c(=O)n(C)c4n3)cc2C1 [Example 50, (3R)-N-[3-[2-[2-(2-acetyl-3,4-dihydro-1H-isoquinolin-7-yl)ethylamino]-8-methyl-7-oxopyrido[2,3-d]pyrimidin-6-yl]-2,4-difluorophenyl]-3-fluoropyrrolidine-1-sulfonamide] | 13.8 | 4.5 | 15 | 1.55 | 103.6
3 | CC(=O)N1CCC(n2c(=O)c(-c3c(F)ccc(NS(=O)(=O)N4CC[C@@H](F)C4)c3F)cc3cnc(NCC4CC4)nc32)C1 (mixture of isomers) [Example 42, (3R)-N-[3-[8-((3RS)-1-acetylpyrrolidin-3-yl)-2-(cyclopropylmethylamino)-7-oxopyrido[2,3-d]pyrimidin-6-yl]-2,4-difluorophenyl]-3-fluoropyrrolidine-1-sulfonamide] | 50.4 | 22.6 | 378 | 4.84 | 12.8
4 | Cn1c(=O)c(-c2c(F)ccc(NS(=O)(=O)N3CC[C@@H](F)C3)c2F)cc2cnc(NCCOc3ccccc3)nc21 [Example 6, (3R)-N-[2,4-difluoro-3-[8-methyl-7-oxo-2-(2-phenoxyethylamino)pyrido[2,3-d]pyrimidin-6-yl]phenyl]-3-fluoropyrrolidine-1-sulfonamide] | 120 | 35.7 | 13.4 | 0.711 | 52.9
5 | CC(=O)NCCOCCOCCn1c(=O)c(-c2c(F)ccc(NS(=O)(=O)N3CC[C@@H](F)C3)c2F)cc2cnc(NCC3CC3)nc21 [Example 41, N-[2-[2-[2-[2-(cyclopropylmethylamino)-6-[2,6-difluoro-3-[[(3R)-3-fluoropyrrolidin-1-yl]sulfonylamino]phenyl]-7-oxopyrido[2,3-d]pyrimidin-8-yl]ethoxy]ethoxy]ethyl]acetamide] | 56.1 | 21.2 | 844 | ≥ 10 | >11.8
6 | Cl.Cn1c(=O)c(-c2c(F)ccc(NS(=O)(=O)N3CC[C@@H](F)C3)c2F)cc2cnc(NCCCC(=O)NC3CCNCC3)nc21 [Example 19, 4-[[6-[2,6-difluoro-3-[[(3R)-3-fluoropyrrolidin-1-yl]sulfonylamino]phenyl]-8-methyl-7-oxopyrido[2,3-d]pyrimidin-2-yl]amino]-N-piperidin-4-ylbutanamide hydrochloride] | 59.6 | 38.3 | 7210 | ≥ 10 | 1.4
7 | Cl.Cn1c(=O)c(-c2c(F)ccc(NS(=O)(=O)N3CC[C@@H](F)C3)c2F)cc2cnc(NCCCC3CCNCC3)nc21 [Example 18, (3R)-N-[2,4-difluoro-3-[8-methyl-7-oxo-2-(3-piperidin-4-ylpropylamino)pyrido[2,3-d]pyrimidin-6-yl]phenyl]-3-fluoropyrrolidine-1-sulfonamide hydrochloride] | 71.6 | 25.5 | 207 | 5.87 | 28.3
8 | CC(=O)NCc1cccc(CCNc2ncc3cc(-c4c(F)ccc(NS(=O)(=O)N5CC[C@@H](F)C5)c4F)c(=O)n(C)c3n2)c1 [Example 34, N-[[3-[2-[[6-[2,6-difluoro-3-[[(3R)-3-fluoropyrrolidin-1-yl]sulfonylamino]phenyl]-8-methyl-7-oxopyrido[2,3-d]pyrimidin-2-yl]amino]ethyl]phenyl]methyl]acetamide] | 4 | 1.8 | 11.5 | 0.681 | 59.1
9 | CC(=O)N1CCC(CCCNc2ncc3cc(-c4c(F)ccc(NS(=O)(=O)N5CC[C@@H](F)C5)c4F)c(=O)n(C)c3n2)CC1 [Example 28, (3R)-N-[3-[2-[3-(1-acetylpiperidin-4-yl)propylamino]-8-methyl-7-oxopyrido[2,3-d]pyrimidin-6-yl]-2,4-difluorophenyl]-3-fluoropyrrolidine-1-sulfonamide] | 53 | 14.7 | 33.4 | 1.37 | 40.9
10 | CC(=O)N[C@@H]1CC[C@@H](Nc2ncc3cc(-c4c(F)ccc(NS(=O)(=O)N5CC[C@@H](F)C5)c4F)c(=O)n(C)c3n2)C1 (racemic) [Example 23, N-[(1R,3R)-3-[[6-[2,6-difluoro-3-[[(3R)-3-fluoropyrrolidin-1-yl]sulfonylamino]phenyl]-8-methyl-7-oxopyrido[2,3-d]pyrimidin-2-yl]amino]cyclopentyl]acetamide AND N-[(1S,3S)-3-[[6-[2,6-difluoro-3-[[(3R)-3-fluoropyrrolidin-1-yl]sulfonylamino]phenyl]-8-methyl-7-oxopyrido[2,3-d]pyrimidin-2-yl]amino]cyclopentyl]acetamide] | 21.1 | 7.5 | 69 | 4.1 | 59.4
11 | CCN(C)S(=O)(=O)Nc1ccc(F)c(-c2cc3cnc(NCCCNC)nc3n(C)c2=O)c1F.Cl [Example 17, 6-[3-[[ethyl(methyl)sulfamoyl]amino]-2,6-difluorophenyl]-8-methyl-2-[3-(methylamino)propylamino]-7-oxopyrido[2,3-d]pyrimidine hydrochloride] | 385 | 168 | 1260 | 7.53 | 6.0
12 | CCN(C)S(=O)(=O)Nc1ccc(F)c(-c2cc3cnc(NCC4CC4)nc3n(C)c2=O)c1F [Example 11, 2-(cyclopropylmethylamino)-6-[3-[[ethyl(methyl)sulfamoyl]amino]-2,6-difluorophenyl]-8-methyl-7-oxopyrido[2,3-d]pyrimidine] | 441 | 159 | 71 | ≥ 10 | >140.9
13 | CC(=O)N(C)CCCNc1ncc2cc(-c3c(F)ccc(NS(=O)(=O)N4CC[C@@H](F)C4)c3F)c(=O)n(C)c2n1 [Example 27, N-[3-[[6-[2,6-difluoro-3-[[(3R)-3-fluoropyrrolidin-1-yl]sulfonylamino]phenyl]-8-methyl-7-oxopyrido[2,3-d]pyrimidin-2-yl]amino]propyl]-N-methylacetamide] | 41.9 | 9.6 | 54.8 | 1.83 | 33.4
